The values below come from paper PMC4172726, “3-Dimensional Culture Systems for Anti-Cancer Compound Profiling and High-Throughput Screening Reveal Increases in EGFR Inhibitor-Mediated Cytotoxicity Compared to Monolayer Culture Systems” (PLoS ONE, 2014).

Read-outs that look alike come from different tables or passages of the source.

In assay [1] the test system is wild type K-Ras colon cancer cells. Further details: method as in PMID 23555746. Particulars: 3D spheroids in laminin-rich extracellular matrix, concomitant reduction in EGFR levels; cited from earlier work.
Assay [2] relates to BT-474 cells. Put plainly: Single concentration primary screen of ADC library, ATP content, BT-474 cells 2D and 3D. The following applies: 5 µM; for hit in primary screen (decreasing ATP content by 50% or more compared to vehicle treated cells): BT-474 tumor cells, 48 h, 2D and 3D; for selectivity for BT-474 cells over MCF-10A cells in primary screen: 3D culture conditions.
The test system of assay [3] is MCF-10A cells. Put plainly: Single concentration primary screen of ADC library, ATP content, MCF-10A cells 2D and 3D. In kind it is cell-based, human. Particulars: MCF-10A normal cells, 5 µM, 48 h. The method, then:
For single concentration point primary screens, the BT-474 cells were seeded at 3000 cells/well (in RPMI+10% FBS+PSG medium) and the MCF-10A cells at 1000 cells per well (in 50/50 DMEM/F12, 5% FHS, 0.5 µg/mL hydrocortisone, 5 µg/mL insulin, 5 ng/mL rhEGF, PSG) in 96-well Corning #3595 (for 2D) or Corning #7007 (for 3D) plates. Dilution plates were made by diluting the compounds 1∶1 with 50% medium/50% DMSO to yield a final concentration of 5 µM per well.

For assay [4], the system named is BT-474 cells. The assay can be described thus: Cytotoxicity concentration-response assay (CellTiter GLO, cellular ATP) in BT-474 cells cultured in 2D or 3D.
The test system of assay [5] is HF+HE co-cultures. The assay can be described thus: Concentration-response cell viability assay (CellTiterGLO) in HF+HE co-cultures. The following applies: for EC50: Homo sapiens, 48 h, 15-point concentration response. In kind it is cell-based, human. The method, then: (§1) For co-cultures in 3D, trypsinized cells were counted and mixed together to be seeded into 96-well round-bottom ultralow attachment plates (Corning #7007). As indicated in the legends, either the total cell number was held at 3000 cells per well, or 3000 BT-474 cells were seeded together with 1500 HFs and/or HUVECs. As we observed with the monotypic spheroids, the co-cultures also spontaneously formed one spheroid per well during the 48-hour incubation period. By analysis of ATP levels, the co-culture spheroids were viable for 5 days without a medium change or addition of supplements. All the co-cultures were maintained in a 1∶1∶1 mixture of RPMI:DMEM:EGM-2 complete media. The 2D co-cultures were plated at the same ratio of cells in the same mixed medium, but in flat bottom 96-well tissue culture plates (Corning #3595). Forty-eight hours after plating, the 2D or 3D cells were used for cytotoxicity assays, screening, or immunostaining as described in subsequent Methods sections.
(§2) To quantitate cellular ATP as a measure of viability, 50 µL of CellTiter GLO reagent (Promega) was added to each well. […] In addition, spheroids were triturated six times to promote complete lysis.
(§3) For the co-culture screens, serial dilution primary screening was used. The cells were seeded in 96-well plates at 1500 HF+1500 HUVEC cells per well for the human fibroblast and human endothelial cell (HF+HE) co-cultures (in EGM-2 complete medium), or 750 HF+750 HUVEC+1500 BT-474 for the BT-474+HF+HE co-cultures (in 1∶1 RPMI+10% FBS+PSG: EGM-2 complete medium). Cells seeded in Corning #7007 round bottom, ultra-low attachment plates formed a single 3D spheroid per well while cells seeded in Corning #3595 flat bottom, tissue culture-treated plates attached as a 2D monolayer. […] Spheroid lysis was further aided by mixing 100 µl of volume using the STAR liquid handler, and then 75 µl was transferred to a Greiner Lumitrac 96-well plate for luminescence reading on a PE Envision plate reader. For the monolayer plates, 75 µl was transferred to the Greiner Lumitrac plates per well, and also read on the PE Envision.

Assay [6] concerns MCF-10A cells. The assay can be described thus: Cytotoxicity concentration-response assay (CellTiter GLO, cellular ATP) in MCF-10A cells cultured in 2D or 3D. Particulars: MCF-10A 3D spheroid, 48 h treatment, read-out: EC50 (concentration at which the compound reduces cell viability by 50%). Type of assay: cell-based, human. The protocol:
To generate 3D miniature cultures for HTS, cells were seeded at a cell number observed to consistently form a single, uniformly round spheroid.
as §2
For orientation: Cellular ATP, detected with luciferase, serves as a proxy for viable cell number.

In assay [7] the test system is BT-474+HF+HE co-cultures. The assay can be described thus: Concentration-response cell viability assay (CellTiterGLO) in BT-474+HF+HE co-cultures. The following applies: for EC50: Homo sapiens, 48 h, 15-point concentration response. In kind it is cell-based, human. The method, then:
as §1, §2, §3

The subject of assay [8] is HF cells cultured as 3D spheroids. The assay can be described thus: Cell viability assay of HF spheroids (Figure S1A).
Method: All spheroids were cultured and treated as in Figure 3A–B. Figure represents 2 experiments performed in duplicate and table utilizes EC50 values from Figure 3 as a direct comparison. B, immunofluorescent and brightfield overlay images of BT-474 cells (3 k cells, brightfield), HEs (1 k cells, green) and HFs (1 k cells, red) cultured as spheroids for 48 h before addition of vehicle (0.1% DMSO, left panel) or 10 µM Lapatinib for 48 h (right panel).
Where [9] appears, read: Homo sapiens, BT-474, 48 h, read-out: EC50 (concentration at which the compound reduces cell viability by 50%), BT-474 3D spheroid, 48 h treatment.

Take `COc1cc2ncnc(Nc3cccc(Cl)c3)c2cc1OC` [AG-1478, Tyrphostin AG1478]: the “sensitivity in 3D spheroids” value in assay [1] is recorded as “decreased sensitivity”.
For `Cc1nc(Nc2ncc(C(=O)Nc3c(C)cccc3Cl)s2)cc(N2CCN(CCO)CC2)n1` [dasatinib], the “hit in primary screen (decreasing ATP content by 50% or more compared to vehicle treated cells)” value in assay [2] is “hits under both 2D and 3D culture conditions”; in assay [3], “only under 2D culture conditions”. Besides, the EC50 in assay [4] (setting [9]) is less than 10 µM; in assay [4] (Homo sapiens, BT-474, read-out: calculated EC50 values in confirmatory dose response assays, BT-474, culture condition (2D/3D) not given), 6 to 8 µM; in assay [4] (read-out: EC50 (concentration at which the compound reduces cell viability by 50%), BT-474 3D spheroid, 48 h treatment), 8.1 µM.
As to `COc1cc2ncnc(Nc3ccc(F)c(Cl)c3)c2cc1OCCCN1CCOCC1` [gefitinib], the “hit in primary screen (decreasing ATP content by 50% or more compared to vehicle treated cells)” value in assay [2] is “hits under both 2D and 3D culture conditions”; in assay [3], “only under 2D culture conditions”.
Consider `CS(=O)(=O)CCNCc1ccc(-c2ccc3ncnc(Nc4ccc(OCc5cccc(F)c5)c(Cl)c4)c3c2)o1` [lapatinib], for which the “hit in primary screen (decreasing ATP content by 50% or more compared to vehicle treated cells)” value in assay [2] was “hits under both 2D and 3D culture conditions”; in assay [3], “only under 2D culture conditions”. The “fold less sensitive than BT-474 cancer cell spheroids” value in assay [5] (HF+HE spheroids, 3D, Figure S1A) is on record as 100 fold; in assay [8], 10 fold. Besides, the EC50 is 2.7 µM in assay [5] (HF+HE 2D co-culture); 30 µM in assay [5] (HF+HE 3D co-culture); greater than 5 µM in assay [6] (Homo sapiens, MCF-10A, 48 h); 9.8 µM in assay [6]; 3.5 µM in assay [7] (BT-474+HF+HE 2D co-culture); 0.9 µM in assay [7] (BT-474+HF+HE 3D co-culture). For the same compound, the “difference in sensitivity between 3D BT-474+HF+HE and 3D HF+HE co-cultures” value in assay [7] (3D, ratio of EC50 values) is recorded as “about 30 fold”. The “sensitivity of BT-474 spheroids compared to BT-474+HF+HE co-cultures” value in assay [4] (3D spheroids) was “more sensitive”.
Turning to `CC[C@]1(O)C[C@@H]2CN(CCc3c([nH]c4ccccc34)[C@@](C(=O)OC)(c3cc4c(cc3OC)N(C)[C@H]3[C@@](O)(C(=O)OC)[C@H](OC(C)=O)[C@]5(CC)C=CCN6CC[C@]43[C@@H]65)C2)C1` [vinblastine], the “selectivity for BT-474 cells over MCF-10A cells in primary screen” value in assay [2] is “slight selectivity”.
For `CCC1=C[C@@H]2CN(C1)Cc1c([nH]c3ccccc13)[C@@](C(=O)OC)(c1cc3c(cc1OC)N(C)[C@H]1[C@@](O)(C(=O)OC)[C@H](OC(C)=O)[C@]4(CC)C=CCN5CC[C@]31[C@@H]54)C2` [vinorelbine], the “selectivity for BT-474 cells over MCF-10A cells in primary screen” value in assay [2] is given as “slight selectivity”. Further, the EC50 was greater than 100 µM in assay [6] (Homo sapiens, MCF-10A, 48 h) and 5.2 µM in assay [4] (setting [9]). In assay [3], the “hit in primary screen (decreasing ATP content by 50% or more compared to vehicle treated cells)” value is listed as “we did not identify vinorelbine as a “hit””.
